Like-named read-outs stand apart in the source and are kept apart here.
Experiments:
NF-κB [1] = assay type: cell-based, human
Oct-1 = assay type: cell-based; conditions: 25 μg/ml, 2 hours
NF-κB [2] = assay type: cell-based, human; remark: listed apart in the source
AP-1 = assay type: cell-based; conditions: 25 μg/ml, 2 hours
in vitro [3] = conditions: human, u937 cells
IκBa [4] = assay type: cell-based, human
NF-κB [5] = assay type: biochemical, human
TFII D = assay type: cell-based; conditions: 25 μg/ml, 2 hours
p65 [6] = assay type: cell-based, human
p50 = assay type: cell-based
p65 [7] = assay type: cell-based, human; remark: listed apart in the source
c-Rel = assay type: cell-based
NF-κB [8] = assay type: cell-based, human; remark: listed apart in the source
NF-κB [9] = assay type: biochemical
[10] = test system: IκBa promoter linked to the CAT gene; assay type: cell-based
NF-κB [11] = assay type: cell-based, human; remark: listed apart in the source
in vitro [12] = assay: in vitro
IκBa [13] = assay type: cell-based, human; remark: listed apart in the source
NF-κB [14] = assay type: cell-based, human; remark: listed apart in the source
NF-κB [15] = assay type: cell-based
NF-κB [16] = assay type: cell-based; remark: listed apart in the source

Question: Which results are given for `O=C(/C=C/c1ccc(O)c(O)c1)OCCc1ccccc1` [CAPE, caffeic acid (3,4-dihydroxy cinnamic acid) phenethyl ester]?
Answer: CAPE-induced inhibition of NF-κB activation in the presence of reducing agents (NF-κB [1]): reversed completely; activation of NF-κB by the substance alone (NF-κB [1]): No activation; concentration with maximum effect on TNF-dependent activation of NF-κB (NF-κB [1]): 25 µg/mL; inhibition of TNF-dependent activation of NF-κB (NF-κB [1]): inhibited the TNF-dependent activation of NF-κB in a dose-dependent manner; kinetics of inhibition of TNF response: cotreatment with TNF (NF-κB [1]): not effective; kinetics of inhibition of TNF response: pretreatment (NF-κB [1]): inhibited only when the cells were pretreated; DNA-binding ability of Oct-1 (Oct-1): did not inhibit; activation of NF-κB induced by H2O2 (NF-κB [2]): completely blocked; activation of NF-κB induced by ceramide (NF-κB [2]): completely blocked; activation of NF-κB induced by okadaic acid (NF-κB [2]): completely blocked; activation of NF-κB induced by phorbol myristate acetate (NF-κB [2]): completely blocked; DNA-binding ability of AP-1 (AP-1): did not inhibit; viability (in vitro [3]): > 98%; TNF-induced rate of degradation of IκBa (IκBa [4]): did not affect significantly; cytoplasmic pool of IκBa, substance alone (IκBa [4]): no effect; resynthesis of IκBa after TNF (IκBa [4]): did delay its resynthesis; binding of NF-κB to DNA, deoxycholate-treated cytoplasmic extracts (NF-κB [5]): interfered with the binding of NF-κB proteins to DNA; binding of NF-κB to DNA, nuclear extracts from TNF-preactivated cells (NF-κB [5]): prevented NF-κB from binding to DNA; DNA-binding ability of TFII D (TFII D): did not inhibit; TNF-induced appearance of p65 in the nucleus (p65 [6]): blocked; cytoplasmic pool of p65 (p65 [6]): none of the treatments altered significantly

Question: Which “level of p50 protein in cytosolic fraction” value (p50) does the source give for `COc1cc(CNC(=O)CCCCC=CC(C)C)ccc1O` [capsaicin, 8-methyl-N-vanillyl-6-nonenamid] here?
Answer: Its value is “neither capsaicin by itself or in combination with TNF had any effect”.

Question: And the “TNF-induced migration of p65 into the nucleus” value (p65 [7])?
Answer: Its value is “did block the TNF-induced migration”.

Question: And the “level of cytoplasmic p65, capsaicin alone” value (p65 [7])?
Answer: Its value is “remained unaffected”.

Question: What about the “migration of p65 protein into the nucleus, capsaicin by itself” value (p65 [7]) of the same molecule?
Answer: Its value is “did not induce this migration”.

Question: What about the “level of c-Rel protein in cytosolic fraction” value (c-Rel) of the same molecule?
Answer: Its value is “neither capsaicin by itself or in combination with TNF had any effect”.

Question: And the “NF-κB activation on co-incubation with TNF” value (NF-κB [8])?
Answer: The value was “did not block NF-κB activation”.

Question: What about the “activation of NF-κB by 10 nM TNF” value (NF-κB [8]) of the same molecule?
Answer: The value was “completely inhibited”.

Question: And the “activation of NF-κB by the substance itself” value (NF-κB [8])?
Answer: The value was “did not activate NF-κB”.

Question: What about the “concentration that inhibited most of the activation induced by TNF” value (NF-κB [8]) of the same molecule?
Answer: The value was 200 to 300 µM.

Question: And the “pre-incubation time for maximum inhibition of the response to TNF” value (NF-κB [8])?
Answer: The value was 120 min.

Question: And the “ability of NF-κB to bind to the DNA, deoxycholate-treated cytoplasmic extracts from capsaicin-exposed cells” value (NF-κB [9])?
Answer: Its value is “did not modify”.

Question: What about the “ability of NF-κB to bind to the DNA, nuclear extracts exposed to capsaicin after TNF treatment” value (NF-κB [9]) of the same molecule?
Answer: The value was “did not modify”.

Question: And the “TNF-enhanced CAT activity, pIκBCAT-transfected cells” value [10]?
Answer: Its value is “reduced significantly”.

Question: And the “NF-κB activation mediated through okadaic acid” value (NF-κB [11])?
Answer: Its value is “inhibited only partially”.

Question: And the “phorbol myristate acetate-induced activation of NF-κB” value (NF-κB [11])?
Answer: The value was “completely blocked”.

Question: And the viability at 2 h, 100 µM (in vitro [12])?
Answer: The viability at 2 h, 100 µM was 99%.

Question: And the viability at 2 h, 200 µM (in vitro [12])?
Answer: Its viability at 2 h, 200 µM is 98%.

Question: And the viability at 2 h, 300 µM (in vitro [12])?
Answer: Its viability at 2 h, 300 µM is 95%.

Question: And the “TNF-mediated degradation of IκBa” value (IκBa [13])?
Answer: Its value is “abolished”.

Question: What about the “appearance of TNF-mediated slower-migrating band of IκBa” value (IκBa [13]) of the same molecule?
Answer: Its value is “abolished”.

Question: And the “level of cytoplasmic IκBa, capsaicin alone” value (IκBa [13])?
Answer: The value was “remained unaffected”.

Question: What about the “concentration with almost complete inhibition of TNF-induced NF-κB” value (NF-κB [14]) of the same molecule?
Answer: Its value is 200 µM.

Question: And the “concentration with almost complete inhibition of TNF-induced NF-κB” value (NF-κB [15])?
Answer: The value was 200 µM.

Question: For `O=C(C=Cc1cc(O)ccc1O)OCCc1ccccc1` [compound 1], which “activity in inhibiting NF-κB activation relative to CAPE” value (NF-κB [1]) is on record?
Answer: Its value is “as active as CAPE”.

Question: And the “effect of CAPE analogues on TNF-induced NF-κB activation” value (shortened to “effect of CAPE analogues”) (NF-κB [1])?
Answer: The value was “increased the potency of inhibition”.

Question: Which “activity in inhibiting NF-κB activation relative to CAPE” value (NF-κB [1]) does the source give for `COc1ccc(C=CC(=O)OCCc2ccccc2)cc1OC` [compound 2] here?
Answer: Its value is “less active than CAPE”.

Question: With `O=C(C=Cc1ccc(O)c(O)c1O)OCCc1ccccc1` [compound 3] as the molecule, how does the “activity in inhibiting NF-κB activation relative to CAPE” value (NF-κB [1]) read?
Answer: Its value is “less active than CAPE”.

Question: What about the “effect of CAPE analogues” value (NF-κB [1]) of the same molecule?
Answer: The value was “loss of potency”.

Question: With `O=C(C=Cc1ccc(O)c(O)c1)OCCCc1ccccc1` [compound 4] as the molecule, how does the “activity in inhibiting NF-κB activation relative to CAPE” value (NF-κB [1]) read?
Answer: Its value is “less active than CAPE”.

Question: And the “effect of CAPE analogues” value (NF-κB [1])?
Answer: Its value is “significant loss of inhibition”.

Question: Which “TNF-mediated activation of NF-κB” value (NF-κB [16]) does the source give for `C=C(C)[C@]12C[C@@H](C)[C@@]34O[C@](Cc5ccccc5)(O[C@@H]1[C@@H]3C=C(COC(=O)Cc1ccc(O)c(OC)c1)C[C@]1(O)C(=O)C(C)=C[C@@H]41)O2` [resiniferatoxin] here?
Answer: Its value is “completely inhibited”.

Question: And the “activation of NF-κB by the substance itself” value (NF-κB [16])?
Answer: Its value is “did not activate NF-κB”.

Question: And the “concentration sufficient for maximum inhibition of the TNF response” value (NF-κB [16])?
Answer: Its value is 40 µM.

Question: And the “potency relative to capsaicin” value (NF-κB [16])?
Answer: Its value is “approximately 8 fold”.
